Measured values from patent US20220193062A1 (DENOVO BIOPHARMA LLC, priority 2018, published 2022).
Read-outs that look alike come from different tables or passages of the source. One block for each compound: values may come before it.

How the values were obtained:
[1] = test system: Bmx, CSK, FGR, BRK, and HCK; settings: cited from earlier work
[2] = test system: EGFR, Yes, ErbB2, and JAK3; settings: cited from earlier work
[3] = target: T1, bone marrow tyrosine kinase on chromosome X (BMX) (Homo sapiens, UniProt P51813); settings: targets Cys496 in the BMX ATP binding domain; cited from earlier work
T1 sequence (P51813 1-675): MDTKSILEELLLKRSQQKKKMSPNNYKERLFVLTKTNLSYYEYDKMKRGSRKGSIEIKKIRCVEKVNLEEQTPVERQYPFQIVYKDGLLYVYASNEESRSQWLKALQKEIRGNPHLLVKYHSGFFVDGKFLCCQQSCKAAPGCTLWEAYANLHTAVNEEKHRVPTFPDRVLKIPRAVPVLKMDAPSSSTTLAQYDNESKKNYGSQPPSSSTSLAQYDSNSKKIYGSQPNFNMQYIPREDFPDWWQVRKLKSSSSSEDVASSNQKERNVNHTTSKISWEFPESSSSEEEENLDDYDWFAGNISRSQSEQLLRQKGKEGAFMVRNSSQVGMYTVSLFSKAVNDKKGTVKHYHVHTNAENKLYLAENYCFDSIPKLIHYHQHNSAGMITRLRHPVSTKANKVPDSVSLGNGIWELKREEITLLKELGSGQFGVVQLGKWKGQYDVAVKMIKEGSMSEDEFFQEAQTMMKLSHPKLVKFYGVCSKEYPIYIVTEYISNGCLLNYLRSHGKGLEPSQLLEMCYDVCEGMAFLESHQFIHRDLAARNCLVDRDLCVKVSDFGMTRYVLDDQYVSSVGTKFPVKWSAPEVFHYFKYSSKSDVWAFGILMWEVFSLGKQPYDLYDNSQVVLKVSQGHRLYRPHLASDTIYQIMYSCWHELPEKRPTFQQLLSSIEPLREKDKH

BTK [4] = target: BTK (Rattus norvegicus, UniProt Q5S255); settings: read-out: in vivo IC50; rats; cited from earlier work
BTK (Rattus norvegicus, UniProt Q5S255), sequence (Q5S255 1-660): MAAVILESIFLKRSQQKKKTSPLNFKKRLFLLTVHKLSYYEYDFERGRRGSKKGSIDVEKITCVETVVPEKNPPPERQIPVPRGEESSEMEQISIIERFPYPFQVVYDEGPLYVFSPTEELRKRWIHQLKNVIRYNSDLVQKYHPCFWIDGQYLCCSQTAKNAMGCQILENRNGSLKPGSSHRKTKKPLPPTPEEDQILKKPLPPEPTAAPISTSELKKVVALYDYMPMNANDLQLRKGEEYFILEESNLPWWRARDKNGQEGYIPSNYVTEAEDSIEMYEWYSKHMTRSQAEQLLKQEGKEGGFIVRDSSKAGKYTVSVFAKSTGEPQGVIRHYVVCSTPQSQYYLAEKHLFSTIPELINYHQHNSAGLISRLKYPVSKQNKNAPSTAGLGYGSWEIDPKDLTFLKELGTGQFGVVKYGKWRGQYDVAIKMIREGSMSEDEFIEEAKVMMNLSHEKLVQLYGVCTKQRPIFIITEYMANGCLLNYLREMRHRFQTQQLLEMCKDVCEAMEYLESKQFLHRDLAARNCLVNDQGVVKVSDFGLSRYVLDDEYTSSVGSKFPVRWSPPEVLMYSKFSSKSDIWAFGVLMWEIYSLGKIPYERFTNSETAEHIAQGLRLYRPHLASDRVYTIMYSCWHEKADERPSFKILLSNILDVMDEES

Plx1 = Plx1 (Xenopus laevis, UniProt P70032); settings: cited from earlier work
Plx1, sequence (P70032 whole entry): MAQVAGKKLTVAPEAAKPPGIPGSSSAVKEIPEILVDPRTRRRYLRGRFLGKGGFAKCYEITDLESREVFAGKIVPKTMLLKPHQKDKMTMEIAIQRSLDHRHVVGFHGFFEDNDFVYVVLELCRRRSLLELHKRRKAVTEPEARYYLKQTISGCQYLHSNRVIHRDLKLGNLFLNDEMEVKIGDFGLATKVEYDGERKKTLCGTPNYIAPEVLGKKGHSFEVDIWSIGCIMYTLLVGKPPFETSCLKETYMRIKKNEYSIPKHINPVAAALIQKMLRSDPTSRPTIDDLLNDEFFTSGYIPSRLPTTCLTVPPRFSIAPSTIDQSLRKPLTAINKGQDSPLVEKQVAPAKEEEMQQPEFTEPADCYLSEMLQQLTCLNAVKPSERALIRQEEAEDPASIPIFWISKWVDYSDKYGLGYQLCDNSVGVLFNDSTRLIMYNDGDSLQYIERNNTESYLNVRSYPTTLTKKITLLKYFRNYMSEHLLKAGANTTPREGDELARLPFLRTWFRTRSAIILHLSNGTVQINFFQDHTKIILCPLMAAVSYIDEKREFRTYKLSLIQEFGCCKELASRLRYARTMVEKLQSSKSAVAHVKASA

PLK3 = PLK3 (Homo sapiens, UniProt Q9H4B4); settings: cited from earlier work
PLK3, sequence (Q9H4B4 whole entry, species assumed): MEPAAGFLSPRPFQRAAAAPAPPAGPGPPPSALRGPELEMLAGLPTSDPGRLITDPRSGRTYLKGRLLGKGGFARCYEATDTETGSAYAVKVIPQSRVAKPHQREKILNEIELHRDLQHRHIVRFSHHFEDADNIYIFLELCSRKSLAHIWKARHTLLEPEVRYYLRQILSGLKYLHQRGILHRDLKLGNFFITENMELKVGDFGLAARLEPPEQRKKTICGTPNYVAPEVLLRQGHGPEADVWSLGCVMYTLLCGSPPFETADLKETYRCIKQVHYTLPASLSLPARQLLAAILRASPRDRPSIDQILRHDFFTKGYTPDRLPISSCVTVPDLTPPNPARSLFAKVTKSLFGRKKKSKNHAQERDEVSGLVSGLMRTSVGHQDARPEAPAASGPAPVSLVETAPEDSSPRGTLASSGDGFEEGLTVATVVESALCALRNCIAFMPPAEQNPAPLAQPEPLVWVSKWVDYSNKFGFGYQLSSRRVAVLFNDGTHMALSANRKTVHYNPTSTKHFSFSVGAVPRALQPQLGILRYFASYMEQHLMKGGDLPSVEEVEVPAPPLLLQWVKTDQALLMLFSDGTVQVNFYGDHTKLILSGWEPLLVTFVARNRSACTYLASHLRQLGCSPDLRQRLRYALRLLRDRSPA

BTK [5] = target: BTK (Homo sapiens, UniProt Q06187); settings: cited from earlier work
BTK (Homo sapiens, UniProt Q06187), sequence (Q06187 whole entry, species assumed): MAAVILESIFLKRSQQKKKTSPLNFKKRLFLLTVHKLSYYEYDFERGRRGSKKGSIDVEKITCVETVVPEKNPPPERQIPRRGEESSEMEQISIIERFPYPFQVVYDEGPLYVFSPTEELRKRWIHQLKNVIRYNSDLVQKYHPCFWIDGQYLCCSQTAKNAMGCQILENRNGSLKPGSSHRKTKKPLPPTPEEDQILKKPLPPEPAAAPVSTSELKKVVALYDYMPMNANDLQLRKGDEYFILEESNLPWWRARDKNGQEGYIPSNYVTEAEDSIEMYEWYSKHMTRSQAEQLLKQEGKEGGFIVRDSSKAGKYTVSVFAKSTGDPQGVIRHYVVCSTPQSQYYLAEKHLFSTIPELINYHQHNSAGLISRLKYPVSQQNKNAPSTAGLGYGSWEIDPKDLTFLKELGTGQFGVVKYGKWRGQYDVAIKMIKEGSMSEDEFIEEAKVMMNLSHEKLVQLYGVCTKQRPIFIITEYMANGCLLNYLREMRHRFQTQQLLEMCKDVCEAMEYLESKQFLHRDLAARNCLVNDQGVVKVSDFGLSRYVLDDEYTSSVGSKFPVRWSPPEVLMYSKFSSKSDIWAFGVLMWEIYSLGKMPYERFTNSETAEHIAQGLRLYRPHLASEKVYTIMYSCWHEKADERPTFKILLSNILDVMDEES

[6] = target: T2, interleukin-2-inducible T-cell kinase (ITK) (Homo sapiens, UniProt Q08881); settings: cited from earlier work
T2 sequence (Q08881 1-620): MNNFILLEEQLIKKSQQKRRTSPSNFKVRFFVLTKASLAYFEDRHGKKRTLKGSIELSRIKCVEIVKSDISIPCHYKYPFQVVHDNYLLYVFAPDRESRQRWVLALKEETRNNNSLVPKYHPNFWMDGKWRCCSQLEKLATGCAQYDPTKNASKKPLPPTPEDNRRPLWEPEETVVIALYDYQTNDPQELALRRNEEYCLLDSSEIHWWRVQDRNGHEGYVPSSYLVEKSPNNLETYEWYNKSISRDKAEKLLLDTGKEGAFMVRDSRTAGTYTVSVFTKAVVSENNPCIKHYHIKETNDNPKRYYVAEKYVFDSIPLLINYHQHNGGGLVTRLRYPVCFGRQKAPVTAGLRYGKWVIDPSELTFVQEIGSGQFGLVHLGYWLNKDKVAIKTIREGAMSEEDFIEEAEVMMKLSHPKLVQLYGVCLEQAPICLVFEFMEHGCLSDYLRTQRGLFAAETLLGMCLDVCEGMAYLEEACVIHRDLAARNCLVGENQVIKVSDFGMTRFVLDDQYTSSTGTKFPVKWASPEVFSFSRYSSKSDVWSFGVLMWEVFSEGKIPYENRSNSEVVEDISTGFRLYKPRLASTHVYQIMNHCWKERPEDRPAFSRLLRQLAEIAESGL

[7] = test system: ABC and GCB types of DLBCL cell lines; experiment: Cell Titer-Glo cell viability, enzastaurin alone, 9 DLBCL cell lines; assay type: cell-based; settings: 72 h; read-out: 50% inhibitory concentration (IC50) of cell proliferation
[8] = test system: p-BTK in HBL-1 and TMD8 cells; experiment: Western blot of p-BTK after enzastaurin; assay type: cell-based; settings: 2 hours treatment
HBL-1 cells [9] = experiment: Apoptosis assay, annexin V flow cytometry; assay type: cell-based; settings: HBL-1, 48 h
[10] = test system: PARP, XIAP, MCL-1, caspase-3, Bcl-2 in HBL-1 cells; experiment: Western blot of proteins associated with apoptosis; assay type: cell-based; settings: HBL-1, 48 hours
HBL-1 cells [11] = experiment: Transwell invasion assay (Matrigel); assay type: cell-based; settings: HBL-1, 2 micromolar enzastaurin and/or 0.02 micromolar ibrutinib
HBL-1 cells [12] = experiment: Transwell migration assay; assay type: cell-based; settings: HBL-1, 2 micromolar enzastaurin and/or 0.02 micromolar ibrutinib
[13] = test system: signals downstream of BCR in HBL-1, TMD-8, and SU-DHL-6 cells; experiment: Western blot of downstream BCR signalling; assay type: cell-based
HBL-1 cells [14] = experiment: Whole-transcriptome RNA-seq; assay type: cell-based; settings: HBL-1, 24 hours
[15] = test system: ABC-DLBCL HBL-1 cells engrafted in NPG mice; experiment: HBL-1 lymphoma xenograft model; assay type: in vivo; settings: for tumour weight: end of the experiment (day 39), vehicle 1321.50±168.84 mg; for reduction of tumor volume: enzastaurin 50 mg/kg BID oral, ibrutinib 12 mg/kg QD oral, 21 days
SU-DHL-5 = experiment: Cell proliferation assay (Cell Titer AQueous One Solution), Example 2; assay type: cell-based; settings: Homo sapiens; SU-DHL-5, 72 h, 0.014 μM-10 μM
SU-DHL-6 = experiment: as above; assay type: cell-based; settings: Homo sapiens; SU-DHL-6, 72 h, 0.014 μM-10 μM
DLBCL patients [16] = settings: Phase I/II studies, cited from earlier work
high-risk DLBCL patients = settings: enzastaurin alone, after remission of B cell lymphoma; cited from earlier work
DLBCL patients [17] = settings: DLBCL trials of enzastaurin; cited from earlier work
relapsed DLBCL patients = settings: cited from earlier work

SMILES: C=CC(=O)N1CCC[C@@H](n2nc(-c3ccc(Oc4ccccc4)cc3)c3c(N)ncnc32)C1 (racemic) [PCI-32765]
- inhibition of Bmx, CSK, FGR, BRK, and HCK [1]: moderate inhibition
- activity on EGFR, Yes, ErbB2, and JAK3 [2]: lower activity

SMILES: C=CC(=O)Nc1cc(-n2c(=O)ccc3cnc4ccc(-c5ccc(NS(C)(=O)=O)cc5)cc4c32)ccc1C [BMX-IN-1]
- IC50 [3]: 0.008 µM

SMILES: Cc1c(NC(=O)c2cc3c(s2)CCCC3)cccc1-c1cn(C)c(=O)c(Nc2ccc([C@@H]3C(=O)N(C)CCN3C)cc2)n1 [GDC-0834]
- IC50 (BTK [4]): 5.6 µM

SMILES: C/C(O)=C(\C#N)C(=O)Nc1cc(Br)ccc1Br [LFM-A13]
- IC50 (Plx1): 10 µM
- IC50 (PLK3): 61 µM

SMILES: NC(=O)[C@H]1CCN(c2ncnc(N)c2F)C[C@@H]1N1CCC[C@@H](Nc2cc(Cl)cc(C(F)(F)F)c2)C1=O [SNS-062]
- Kd (BTK [5]): 0.0003 µM
- Kd [6]: 0.0022 µM

- IC50 (SU-DHL-5): 3.6 µM
- IC50 (SU-DHL-6): 5.9 µM
SMILES: Cn1cc(C2=C(c3cn(C4CCN(Cc5ccccn5)CC4)c4ccccc34)C(=O)NC2=O)c2ccccc21 [enzastaurin]
- IC50 [7]: 6.7 to 16 µM
- p-BTK level [8]: significant upregulation
- apoptosis as measured by annexin V staining (HBL-1 cells [9]; enzastaurin alone (concentration in FIG. 3a)): 25.5±5.4%
- cleavage of PARP and caspase-3 [10]: increase the cleavage of PARP and caspase-3 slightly
- invasive abilities (HBL-1 cells [11]): 97.0 % of control
- migration abilities (HBL-1 cells [12]): 79.0 % of control
- phosphorylation of glycogen synthase kinase 3β (GSK3β) ([13]; low doses, 60 min and 120 min): clearly reduced
- p-BTK, p-ERK and p-AKT expression ([13]; short-term and low-dose treatment): increasing
- downregulated genes contained in the combination treatment group (HBL-1 cells [14]): 365 genes
- share of downregulated transcripts contained in the combination treatment group (HBL-1 cells [14]): Approximately 91%
- transcripts significantly down (HBL-1 cells [14]; 2 micromolar enzastaurin and/or 0.02 micromolar ibrutinib, p<0.05): 339 transcripts
- tumour weight [15]: 1151.62 ± 163.79 mg
- reduction of tumor volume [15]: weak activity
- patients experiencing FFP 20˜50 months (DLBCL patients [16]; 4/55 patients): 7%
- patients with prolonged freedom from progression (FFP≥4 cycles) (DLBCL patients [16]; 8/55 patients): 15%
- disease-free survival (DFS) (high-risk DLBCL patients): did not significantly improve
- survival of DGM1-positive over DGM1-negative patients (DLBCL patients [17]): significantly improved survival

SMILES: C=CC(=O)N1CCC[C@@H](n2nc(-c3ccc(Oc4ccccc4)cc3)c3c(N)ncnc32)C1 [ibrutinib]
- apoptosis as measured by annexin V staining (HBL-1 cells [9]; first-listed of two ibrutinib doses (FIG. 3a)): 15.9±6.0%
- apoptosis as measured by annexin V staining (HBL-1 cells [9]; second-listed of two ibrutinib doses (FIG. 3a)): 19.0±6.7%
- invasive abilities (HBL-1 cells [11]): 85.0 % of control
- migration abilities (HBL-1 cells [12]): 70.2 % of control
- phosphorylation of BTK and AKT [13]: reduced
- phosphorylation of mTOR, PLCγ2, ERK and P38 ([13]; combination compared to each monotherapy alone): mild effect
- tumour weight [15]: 1141.80 ± 235.57 mg
- reduction of tumor volume [15]: weak activity
- overall response rate (ORR) (relapsed DLBCL patients; patients with ABC-DLBCL (14/38)): 37%
- overall response rate (ORR) (relapsed DLBCL patients; patients with GCB-DLBCL (1/20)): 5%
